Reference: patent publication US20240025903A1, “Bicyclic Compounds and Uses Thereof for the Treatment of Diseases” (Athira Pharma, Inc., priority 2020, published 2024)

Key:
[1] = In vitro stability in human plasma; format: in vitro ADME; conditions: 5 μM, 37° C.
Description: (§1) Bioavailability can be estimated by compound stability when exposed to conditions in the body. As an initial assessment of stability properties in a variety of conditions present in animals, exemplary compounds were tested for stability in a battery of simulated body compartments. Compounds were tested for stability in the following solutions: simulated gastric fluid (SGF: 34.2 mM NaCl, pH 1.2), simulated gastric fluid with the digestive enzyme pepsin (SGF+Enzyme: SGF with 3.2 mg/ml pepsin), simulated intestinal fluid with the mixture of enzymes in porcine pancreatin (SIF+Enzyme: 28.7 mM NaH2PO4, 105.7 mM NaCl, pH 6.8, 10 mg/ml pancreatin), rat plasma, and human plasma.
(§2) Test compounds were incubated at a final concentration of 5 μM in the above solutions at 37° C. with samples removed at the following time points: 0, 1, 2, and 4 hours. Reactions were stopped and prepared for quantification by addition of excess quench solution containing an internal standard (acetonitrile, 200 ng/mL bucetin). Test compound and internal standard in each sample was quantified by LC-MS/MS, and after internal normalization to bucetin, test compound concentration was expressed as a percentage of concentration at the 0-hour time point. Stability in the relevant test solution was then determined by the percent remaining at the 4-hour time point.

HepG2 cells = assay: Cytotoxicity assay (LDH release); format: cell-based; conditions: 48 hours, 0.1 to 100 μM
Description: This experiment was designed to obtain a preliminary assessment of cytotoxicity.
HepG2 cells were plated in 96-well cell culture plates and allowed to attach overnight at 37° C., 5% CO2 in EMEM+10% FBS. Treatments were made in complete media (EMEM+10% FBS) and included a dilution series of test compounds from 0.1 to 100 μM. Known cytotoxin cerivastatin was used as a positive assay control and prepared at a final concentration of 0.5 μM.
Growth media was replaced with treatment media (EMEM+10% FBS containing test compound dissolved in DMSO) and cells were incubated with test compounds for 48 hours. At the end of the incubation period, supernatant media from each well was transferred to a new plate and LDH assay working solution was added. LDH assay solution undergoes a colorimetric reaction in proportion to the amount of lactate dehydrogenase (an intracellular protein that was only found in the media in the presence of lysed cells) in the media. Color reaction was quantified by measurement of absorbance at a wavelength of 490 nm.
The signal range of the assay was determined by no manipulation in a negative control treatment and full lysis of all cells in a lysis control sample. Compounds that increase the level of cytotoxicity more than 20% above negative control samples were considered cytotoxic in this assay.

[2] = In vitro stability in simulated gastric and intestinal fluids; format: in vitro ADME; conditions: 37° C.; for SGF + Enz (compound remaining after 4 hours): SGF with 3.2 mg/ml pepsin; for SGF + Enz (compound remaining after 4 hours) / SIF (compound remaining after 4 hours): 5 μM; for SGF (compound remaining after 4 hours): simulated gastric fluid pH 1.2, 5 μM; for SIF (compound remaining after 4 hours): simulated intestinal fluid pH 6.8 with 10 mg/ml pancreatin
Description: as §1, §2

[3] = Turbidimetric solubility assay; format: physicochemical; conditions: PBS, 37° C., absorbance 620 nm; for solubility at 2 h: aqueous buffer, kinetic from dmso stock
Description: Aqueous solubility is a critical drug property that helps to predict bioavailability. Generally, compounds with aqueous solubility <100 μg/ml are poor drugs.
To assess a compound's solubility by turbidity, test compounds were first dissolved in organic solvent (DMSO) at a concentration of 10 mM. This compound solution was then diluted in aqueous solvent (PBS) in a dilution series from […] in a 96-well assay plate. Solutions were incubated at 37° C. for 2 hours.
In wells with test compounds over their solubility limit, the compound will precipitate, effectively blocking the passage of light and thus increasing the absorbance signal of UV light at a wavelength of 620 nm. Compounds were considered insoluble at a tested concentration if turbidity raises the absorbance more than 10% above control reads.

[4] = In vitro stability in rat plasma; format: in vitro ADME; conditions: 5 μM, 37° C.
Description: as §1, §2

HGF/MET system = target: T1, HGF/MET system (Homo sapiens, UniProt P08581+P14210); assay: Phospho-MET ELISA; format: cell-based; conditions: HEK293 cells, 1 ng/mL recombinant HGF, 15 minutes, pMET ELISA
T1 construct: HEK293 cells were prepared by passage into 6-well multi-plates; endogenous in cells; host or cells: HEK293
Description: Compounds were screened for potency towards the HGF/MET system using phospho-MET (pMET) ELISA kits (Cell Signaling). pMET levels were detected in samples having low (1 ng/mL) and high (10 ng/mL) concentrations of HGF.
HEK293 cells were prepared by passage into 6-well multi-plates and grown at 37° C. at 5% CO2 in DMEM+10% FBS until approximately 90% confluent. Cells were then starved for at least 8 hours in serum-free growth media.
Exemplary compounds were prepared in DMEM+0.1% FBS, diluted and added to treatment media with 1 ng/mL recombinant HGF protein (R&D Systems). Cells were incubated in triplicate at 37° C. and 5% CO2 for 15 minutes. Samples were then treated with 180 μL ice-cold RIPA (radioimmunoprecipitation assay) buffer and cells were lysed on ice for 15 minutes. Lysates were cleared by centrifugation at 16,000-g for 15 minutes and the supernatant was retained. Samples were normalized using a BCA assay of lysates to determine protein concentrations across the samples.
Between 50 and 100 μg total protein lysate was loaded into ELISA wells in pMET Sandwich ELISA kit (Cell Signaling Catalog #7227C), ensuring equal protein load in each well. The ELISA was processed according to manufacturer's instructions. After color developed, absorbance was read on an optical plate reader at 450 nm.
Potency measurements were determined using peak efficacy by scaling test compound dose treatments along a scale of 1-10 between 1 ng/mL and 10 ng/mL HGF doses according to the following formula: […]
where y is the normalized data-point, x is the raw data point, A is the mean HGF at 1 ng/mL, and B is the mean HGF at 10 ng/mL.

T1 sequence (P08581 308-1390 limits assumed): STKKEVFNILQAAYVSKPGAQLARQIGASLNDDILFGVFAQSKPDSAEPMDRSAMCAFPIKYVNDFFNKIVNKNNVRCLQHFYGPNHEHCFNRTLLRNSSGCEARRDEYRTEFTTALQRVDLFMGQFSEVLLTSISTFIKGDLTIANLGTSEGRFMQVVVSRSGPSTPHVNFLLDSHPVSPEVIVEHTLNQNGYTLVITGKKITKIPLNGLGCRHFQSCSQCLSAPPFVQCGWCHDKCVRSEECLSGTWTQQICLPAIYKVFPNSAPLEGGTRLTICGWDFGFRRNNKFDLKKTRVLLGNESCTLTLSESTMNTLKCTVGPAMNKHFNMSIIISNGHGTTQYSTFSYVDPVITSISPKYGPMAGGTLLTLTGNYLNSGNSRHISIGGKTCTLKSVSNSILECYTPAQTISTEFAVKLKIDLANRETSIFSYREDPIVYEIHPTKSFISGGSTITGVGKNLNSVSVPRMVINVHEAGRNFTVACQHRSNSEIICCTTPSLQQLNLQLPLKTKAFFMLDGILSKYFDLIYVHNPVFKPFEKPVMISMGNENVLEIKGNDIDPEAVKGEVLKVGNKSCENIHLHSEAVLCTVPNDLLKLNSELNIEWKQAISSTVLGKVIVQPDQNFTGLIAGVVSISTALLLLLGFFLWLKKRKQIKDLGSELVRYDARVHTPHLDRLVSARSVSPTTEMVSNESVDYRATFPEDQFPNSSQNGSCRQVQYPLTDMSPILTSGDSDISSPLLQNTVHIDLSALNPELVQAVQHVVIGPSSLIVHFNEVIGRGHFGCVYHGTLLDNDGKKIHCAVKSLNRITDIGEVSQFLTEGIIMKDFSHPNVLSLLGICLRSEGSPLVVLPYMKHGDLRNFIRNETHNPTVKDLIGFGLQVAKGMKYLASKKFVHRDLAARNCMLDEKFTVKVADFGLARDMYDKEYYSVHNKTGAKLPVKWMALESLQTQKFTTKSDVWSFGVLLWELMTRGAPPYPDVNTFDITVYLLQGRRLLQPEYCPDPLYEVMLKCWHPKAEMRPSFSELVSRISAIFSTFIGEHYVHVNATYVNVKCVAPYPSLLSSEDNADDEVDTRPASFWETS
T1 sequence (P14210 32-494 limits assumed): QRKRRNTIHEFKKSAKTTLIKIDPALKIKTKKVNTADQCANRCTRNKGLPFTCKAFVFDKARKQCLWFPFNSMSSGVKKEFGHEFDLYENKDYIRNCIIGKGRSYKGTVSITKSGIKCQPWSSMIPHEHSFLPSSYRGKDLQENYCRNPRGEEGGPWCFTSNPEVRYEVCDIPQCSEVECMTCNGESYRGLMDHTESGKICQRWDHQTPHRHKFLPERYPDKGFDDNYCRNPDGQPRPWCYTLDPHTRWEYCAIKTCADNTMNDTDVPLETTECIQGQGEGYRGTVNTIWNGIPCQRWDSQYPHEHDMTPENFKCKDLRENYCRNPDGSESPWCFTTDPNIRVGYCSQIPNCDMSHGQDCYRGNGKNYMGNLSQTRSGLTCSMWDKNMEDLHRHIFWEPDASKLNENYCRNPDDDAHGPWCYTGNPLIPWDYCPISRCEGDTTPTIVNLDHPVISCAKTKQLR

| Structure (SMILES) | solubility at 2 h [3] | Human Plasma (compound remaining after 4 hours) [1] | Cytotoxicity (HepG2 cells) | SGF + Enz (compound remaining after 4 hours) [2] | SGF (compound remaining after 4 hours) [2] | SIF (compound remaining after 4 hours) [2] | Rat Plasma (compound remaining after 4 hours) [4] | Potency (augmentation of MET phosphorylation) (HGF/MET system) | Solubility ([3]; 2 hours) |
| --- | --- | --- | --- | --- | --- | --- | --- | --- | --- |
| CC1C(=O)N(CCC2CCCC2)CC2N(C(=O)c3ccc(C(F)(F)F)cc3)CCC(=O)N12 (stereo not shown) [Compound 19] | > 300 µM | +++ (+++ indicates 80-99% compound remaining after 4 hours) | ++++ (++++ indicates non-toxic at 100 μM) | ++ (++ indicates 40-79% compound remaining after 4 hours) | +++ (+++ indicates 80-99% compound remaining after 4 hours) | + (+ indicates 20-39% compound remaining after 4 hours) | +++ (+++ indicates 80-99% compound remaining after 4 hours) | +++ (+++ indicates maximum potency at or above 1 nM) | – |
| CCC(C)CN1CC2N(C(=O)c3ccc(O)cc3)CCC(=O)N2[C@@H](C)C1=O (stereo partly shown) [Compound 8a] | – | ++ (++ indicates 40-79% compound remaining after 4 hours) | ++++ (++++ indicates non-toxic at 100 μM) | +++ (+++ indicates 80-99% compound remaining after 4 hours) | ++++ (++++ indicates 100% compound remaining after 4 hours) | +++ (+++ indicates 80-99% compound remaining after 4 hours) | ++++ (++++ indicates 100% compound remaining after 4 hours) | + (+ indicates maximum potency at or above 100 nM) | ++++ (++++ indicates solubility at 300 μM) |
| CCC(C)CN1CC2N(Cc3ccc(OC(F)F)cc3)CCC(=O)N2[C@@H](C)C1=O (stereo partly shown) [Compound 6a] | > 300 µM | ++ (++ indicates 40-79% compound remaining after 4 hours) | ++++ (++++ indicates non-toxic at 100 μM) | + (+ indicates 20-39% compound remaining after 4 hours) | +++ (+++ indicates 80-99% compound remaining after 4 hours) | ++ (++ indicates 40-79% compound remaining after 4 hours) | +++ (+++ indicates 80-99% compound remaining after 4 hours) | + (+ indicates maximum potency at or above 100 nM) | – |
| CCC(C)CN1CC2N(Cc3ccc(O)nc3)CCC(=O)N2[C@@H](C)C1=O (stereo partly shown) [Compound 7a] | > 300 µM | – | ++++ (++++ indicates non-toxic at 100 μM) | +++ (+++ indicates 80-99% compound remaining after 4 hours) | ++++ (++++ indicates 100% compound remaining after 4 hours) | ++ (++ indicates 40-79% compound remaining after 4 hours) | – | ++ (++ indicates maximum potency at or above 10 nM) | – |
| CC1C(=O)N(CC2CCC2)CC2N(C(=O)c3ccc(OC(F)F)cc3)CCC(=O)N12 (stereo not shown) [Compound 14] | > 300 µM | +++ (+++ indicates 80-99% compound remaining after 4 hours) | ++++ (++++ indicates non-toxic at 100 μM) | ++ (++ indicates 40-79% compound remaining after 4 hours) | ++ (++ indicates 40-79% compound remaining after 4 hours) | +++ (+++ indicates 80-99% compound remaining after 4 hours) | +++ (+++ indicates 80-99% compound remaining after 4 hours) | – | – |

Now from value to compound, other results behind:

| solubility at 2 h [3] | Structure (SMILES) | Human Plasma (compound remaining after 4 hours) [1] | Cytotoxicity (HepG2 cells) | SGF + Enz (compound remaining after 4 hours) [2] | SGF (compound remaining after 4 hours) [2] | SIF (compound remaining after 4 hours) [2] | Rat Plasma (compound remaining after 4 hours) [4] | Potency (augmentation of MET phosphorylation) (HGF/MET system) | Solubility ([3]; 2 hours) |
| --- | --- | --- | --- | --- | --- | --- | --- | --- | --- |
| > 300 µM | CCC(C)CN1CC2N(C(=O)c3ccc(F)cc3)CCC(=O)N2C(C)C1=O (stereo not shown) [Compound 11, 1-(4-fluorobenzoyl)-6-methyl-8-(2-methylbutyl)hexahydro-4H-pyrazino[1,2-a]pyrimidine-4,7(6H)-dione] | +++ (+++ indicates 80-99% compound remaining after 4 hours) | ++++ (++++ indicates non-toxic at 100 μM) | +++ (+++ indicates 80-99% compound remaining after 4 hours) | +++ (+++ indicates 80-99% compound remaining after 4 hours) | ++++ (++++ indicates 100% compound remaining after 4 hours) | ++++ (++++ indicates 100% compound remaining after 4 hours) | +++ (+++ indicates maximum potency at or above 1 nM) | – |
| > 300 µM | CCC(C)CN1CC2N(C(=O)c3ccc(C(F)(F)F)cc3)CCC(=O)N2[C@@H](C)C1=O (stereo partly shown) [Compound 1a] | ++ (++ indicates 40-79% compound remaining after 4 hours) | ++++ (++++ indicates non-toxic at 100 μM) | ++++ (++++ indicates 100% compound remaining after 4 hours) | ++++ (++++ indicates 100% compound remaining after 4 hours) | ++++ (++++ indicates 100% compound remaining after 4 hours) | ++ (++ indicates 40-79% compound remaining after 4 hours) | ++++ (++++ indicates maximum potency at or above 0.1 nM) | – |
| > 300 µM | CCC(C)CN1CC2N(C(=O)c3ccc(OC(F)F)cc3)CCC(=O)N2[C@@H](C)C1=O (stereo partly shown) [Compound 2a] | ++ (++ indicates 40-79% compound remaining after 4 hours) | ++++ (++++ indicates non-toxic at 100 μM) | +++ (+++ indicates 80-99% compound remaining after 4 hours) | ++++ (++++ indicates 100% compound remaining after 4 hours) | ++++ (++++ indicates 100% compound remaining after 4 hours) | ++ (++ indicates 40-79% compound remaining after 4 hours) | ++ (++ indicates maximum potency at or above 10 nM) | – |
